The test system of data set [1] is E. coli ATCC strain no. 25922. Briefly: Bacterial growth inhibition assay (modified JIS Z2801: 2000). It is filed as cell-based. An excerpt: (§1) The Japanese Industrial Standard (JIS) Z2801: 2000 method was slightly modified to analyze antibacterial activity of treated films against food-borne pathogenic bacteria (Association JS., “Antimicrobial products: Test for Antimicrobial Activity and Efficacy,” Japanese Industrial Standard JIS Z 2801 (2000), which is hereby incorporated by reference its entirety). Briefly, a culture of E. coli ATCC strain no. 25922 and a culture of L. monocytogenes from a food isolate were stored in 20% glycerol at −80° C. until use. The L. monocytogenes strain was obtained from the Cornell Food Safety Laboratory Bacterial Strains Collection as FSL C1-0053 and originally isolated from a finished ready-to-eat dairy food product. The cultures were streaked on tryptic soy agar (TSA) and incubated at 37° C. for E. coli and 30° C. L. monocytogenes for 24 hours. An isolated colony from each plate was used to inoculate 12 mL of tryptic soy broth (TSB), which was incubated with shaking for 24 hours at 37° C. A 100 μL aliquot of each culture was used to inoculate 50 mL TSB, which was incubated with shaking for 24 hours at 37° C. to achieve a cell density of 10^9 CFU/mL, which was confirmed by plate count on TSA. Each culture was diluted to reach a starting concentration of 10^5 CFU/mL, also confirmed by plate count on TSA. Treated films were cut into 5×5 cm^2 squares and stored in sterile conditions after the ethanol wash described in the synthesis step. A 0.4 mL aliquot of each 10^5 CFU/mL culture was placed on the treated films and covered with a 4×4 cm^2 sterile PP film to create a sandwich. The PP cover was lightly pressed down with sterile tweezers to distribute the inoculum across the treated film and the sandwich was placed in a Petri dish. The Petri dish was placed in an airtight box containing paper towels saturated with 100 mL of filtered water to maintain a humid environment. The entire apparatus was incubated at 37° C. for 24 hours. After incubation, 10 mL of phosphate buffered saline (PBS, pH 7.4) solution was pipetted into each Petri dish and well mixed to disassemble the sandwich and dilute the inoculated broth. An aliquot was taken from each Petri dish and serially diluted with PBS buffer. A 100 μL aliquot of the appropriate dilution was plated in duplicate on TSA and incubated for 24 hours at 37° C. Plates with 30-300 CFU were counted, and the average plate count of the duplicate plates was recorded. Plate counts for treated films were subtracted from the average plate count of the control to determine inhibition of bacterial growth. The assay was performed on triplicate coupons from two independently extruded batches, totaling 6 replicates per treatment.
(§2) To determine the antimicrobial performance of free curcumin, the assay was repeated with curcumin powder added to the starting inoculum. Curcumin powder was first completely dissolved in ethanol to prepare 2 mg/mL and 0.2 mg/mL stock solutions. Stock solutions were diluted 10× in TSB to final concentrations of 200 μg/mL and 20 μg/mL curcumin, which was then inoculated to a 10^5 CFU/mL starting concentration of either E. coli or L. monocytogenes, confirmed by plate count. The procedure was repeated by replacing the curcumin stock solutions with absolute ethanol (10% v/v in TSB) to quantify any growth inhibition due to ethanol. […]

The subject of data set [2] is L. monocytogenes FSL C1-0053. Described as above. It is filed as cell-based.
Excerpt: as §1, §2

The conditions of data set [3]: printed as pH 7.8; cited from earlier work.
In a further data set the test system is E. coli. To be noted: against E. coli, previous studies; cited from earlier work.
For data set [4] the following is noted: cited from earlier work.

Take `COc1cc(/C=C/C(=O)CC(=O)/C=C/c2ccc(O)c(OC)c2)ccc1O` [curcumin]: the “antibacterial function of free curcumin” value in data set [1] (20 μg/mL curcumin in TSB) was “did not display any antibacterial function”; in data set [2] (20 μg/mL curcumin in TSB, L. monocytogenes), “did not display any antibacterial function”. The “inhibition of bacterial growth compared to control” value in data set [1] (10^5 CFU/mL inoculum, 37° C., 24 hours) was “poor bacterial inhibition”; in data set [2] (L. monocytogenes, 10^5 CFU/mL inoculum, 37° C., 24 hours) it was “poor bacterial inhibition”. Besides, the “inhibition of L. monocytogenes by free curcumin” value in data set [2] (200 μg/mL curcumin, partially fell out of solution in TSB) is 1.63±0.83 log (CFU/mL). The “pKa of the enolic hydrogen” value in data set [3] is reported as 7.8. In addition, in the data set with E. coli, the “minimum inhibitory concentration (MIC)” value was 100 to 200 µg/mL. In addition, the water solubility result in data set [4] is given as “low”.

The record behind these values is US20250319640A1, “ACTIVE AND/OR INTELLIGENT PACKAGING MATERIALS CONTAINING RADICAL SCAVENGING LIGANDS” (CORNELL UNIVERSITY, priority 2022, published 2025).
